# Assay results from ChEMBL document CHEMBL6121036, “Evaluation of Cereblon-Directing Warheads for the Development of Orally Bioavailable PROTACs” (J Med Chem, 2025).
# Calls of active or inactive are those of the source. No cut-off for these calls is given here.
# Assays:
# [1] = Chemical stability in human HD-MB03 cell culture media assessed as half life; assay type: physicochemical
# [2] = Permeability in human MV4-11 cells assessed as cell availability index relative to lenalidomide; assay type: ADME, cell-based
# [3] = Chemical stability in human MV4-11 cell culture media assessed as half life; assay type: physicochemical
# [4] = AUC in female CD1 mouse at 3 mg/kg, iv measured upto 24 hrs by LC-MS/MS analysis; assay type: ADME, organism-based; details: in vivo
# [5] = Clearance in female CD1 mouse at 3 mg/kg, iv measured upto 24 hrs by LC-MS/MS analysis; assay type: ADME, organism-based; details: in vivo
# [6] = Effect on CCNF level in human MV4-11 cells assessed as fold change at 100 nM measured after 4 hrs; assay type: functional
# [7] = Effect on PLAU level in human MV4-11 cells assessed as fold change at 100 nM measured after 4 hrs; assay type: functional
# [8] = Effect on NSA2 level in human MV4-11 cells assessed as fold change at 100 nM measured after 4 hrs; assay type: functional
# [9] = tested on: HEK293; test: Cytotoxicity against HEK293 cells expressing LgBiT fused HiBiT-BRD2 measured after 24 hrs by cell titer-glo assay; assay type: toxicity, cell-based; details: human, hek293, 24 h
# [10] = target: T1, Protein cereblon/Bromodomain-containing protein 4/DNA damage-binding protein 1 (Homo sapiens) (UniProt O60885+Q96SW2+Q16531); test: Binding affinity to his-tagged CRBN/DDB1/GST-tagged BRD4 (49 to 170 residues)(unknown origin) assessed as ternary complex formation by measuring AUC incubated for 1 hr by luminescence based Alphascreen assay; assay type: protein assay
# [11] = tested on: MV4-11; test: Cytotoxicity against human MV4-11 cells assessed as reduction in cell viability incubated for 72 hrs by cell-titer glo assay; assay type: functional, cell-based; details: MV4-11, 72 h
# [12] = Effect on BRD2 level in human MV4-11 cells assessed as fold change at 100 nM measured after 4 hrs; assay type: functional
# [13] = target: T2, Protein cereblon/Bromodomain-containing protein 4 (Homo sapiens, UniProt O60885+Q96SW2); test: PROTAC activity at CRBN/Hibit-tagged BRD4 (unknown origin) expressed in HEK293 cells co-expressing LgBiT assessed as degradation rate incubated for 24 hrs by […] glo-max assay; assay type: cell-based
# [14] = Effect on ZFP36L2 level in human MV4-11 cells assessed as fold change at 100 nM measured after 4 hrs; assay type: functional
# [15] = Effect on BRD4 level in human MV4-11 cells assessed as fold change at 100 nM measured after 4 hrs; assay type: functional
# [16] = Chemical stability in human HD-MB03 cell culture media at 400 uM measured upto 72 hrs by UPLC analysis; assay type: physicochemical
# [17] = Effect on PLK1 level in human MV4-11 cells assessed as fold change at 100 nM measured after 4 hrs; assay type: functional
# [18] = Oral bioavailability in female CD1 mouse at 10 mg/kg measured upto 24 hrs by LC-MS/MS analysis; assay type: ADME, organism-based; details: in vivo
# [19] = AUC last in female CD1 mouse at 10 mg/kg, po measured upto 24 hrs by LC-MS/MS analysis; assay type: ADME, organism-based; details: in vivo
# [20] = tested on: HD-MB03; test: Cytotoxicity against human HD-MB03 cells assessed as reduction in cell viability incubated for 72 hrs by cell-titer glo assay; assay type: functional, cell-based; details: HD-MB03, 72 h
# [21] = Effect on FYTTD1 level in human MV4-11 cells assessed as fold change at 100 nM measured after 4 hrs; assay type: functional
# [22] = Chemical stability in human MV4-11 cell culture media at 400 uM measured upto 72 hrs by UPLC analysis; assay type: physicochemical
# [23] = Metabolic stability in mouse liver microsomes assessed as half life; assay type: ADME, Microsome; details: liver microsomes
# [24] = target: Protein cereblon (Homo sapiens) (UniProt Q96SW2); test: Binding affinity to CRBN (unknown origin)
# [25] = Effect on CCND3 level in human MV4-11 cells assessed as fold change at 100 nM measured after 4 hrs; assay type: functional
# [26] = target: T1, Protein cereblon/Bromodomain-containing protein 4/DNA damage-binding protein 1 (Homo sapiens); test: Binding affinity to his-tagged CRBN/DDB1/GST-tagged BRD4 (49 to 170 residues)(unknown origin) assessed as ternary complex formation (AUC) incubated for 1 hr by luminescence based Alphascreen assay; assay type: protein assay
# [27] = Effect on AURKA level in human MV4-11 cells assessed as fold change at 100 nM measured after 4 hrs; assay type: functional
# [28] = target: Protein cereblon/Bromodomain-containing protein 3 (Homo sapiens) (UniProt Q15059+Q96SW2); test: PROTAC activity at CRBN/BRD3 in human MV4-11 cells assessed as degradation of BRD3 incubated for 4 hrs by immunoblot analysis relative to control; assay type: cell-based
# [29] = Effect on ZBTB21 level in human MV4-11 cells assessed as fold change at 100 nM measured after 4 hrs; assay type: functional
# [30] = Terminal elimination half life in female CD1 mouse at 3 mg/kg, iv measured upto 24 hrs by LC-MS/MS analysis; assay type: ADME, organism-based; details: in vivo, read-out: beta t1/2 (converted)
# [31] = Kinetic aqueous solubility of the compound at pH 7.4; assay type: physicochemical; details: read-out: Kinetic_solubility
# [32] = target: T2, Protein cereblon/Bromodomain-containing protein 4; test: PROTAC activity at CRBN/Hibit-tagged BRD4 (unknown origin) expressed in HEK293 cells co-expressing LgBiT assessed as degradation of BRD4 incubated for 24 hrs by […] glo-max assay; assay type: cell-based
# [33] = Volume of distribution in female CD1 mouse at 3 mg/kg, iv measured upto 24 hrs by LC-MS/MS analysis; assay type: ADME, organism-based; details: in vivo
# [34] = target: T2, Protein cereblon/Bromodomain-containing protein 4; test: PROTAC activity at CRBN/BRD4 in human MV4-11 cells assessed as degradation of BRD4 incubated for 4 hrs by immunoblot analysis; assay type: cell-based
# [35] = tested on: MV4-11; test: Upregulation of p53 level in human MV4-11 cells measured after 4 hrs by immunoblot analysis; assay type: functional, cell-based
# [36] = Effect on NOP53 level in human MV4-11 cells assessed as fold change at 100 nM measured after 4 hrs; assay type: functional
# [37] = Effect on CDC42EP3 level in human MV4-11 cells assessed as fold change at 100 nM measured after 4 hrs; assay type: functional
# [38] = target: T2, Protein cereblon/Bromodomain-containing protein 4; test: PROTAC activity at CRBN/Hibit-tagged BRD4 (unknown origin) expressed in HEK293 cells co-expressing LgBiT assessed as degradation of BRD4 incubated for 24 hrs by […] glo-max assay relative to control; assay type: cell-based
# [39] = tested on: MV4-11; test: Downregulation of c-Myc level in human MV4-11 cells measured after 4 hrs by immunoblot analysis; assay type: functional, cell-based
# [40] = Effect on TP53 level in human MV4-11 cells assessed as fold change at 100 nM measured after 4 hrs; assay type: functional
# [41] = Effect on MYC level in human MV4-11 cells assessed as fold change at 100 nM measured after 4 hrs; assay type: functional
# [42] = Cmax in female CD1 mouse at 10 mg/kg, po measured upto 24 hrs by LC-MS/MS analysis; assay type: ADME, organism-based; details: in vivo
# [43] = Effect on MCL1 level in human MV4-11 cells assessed as fold change at 100 nM measured after 4 hrs; assay type: functional
# [44] = target: Protein cereblon/Bromodomain-containing protein 2 (Homo sapiens) (UniProt P25440+Q96SW2); test: PROTAC activity at CRBN/BRD2 in human MV4-11 cells assessed as degradation of BRD2 incubated for 4 hrs by immunoblot analysis relative to control; assay type: cell-based
# [45] = Effect on FGL2 level in human MV4-11 cells assessed as fold change at 100 nM measured after 4 hrs; assay type: functional
# [46] = Effect on RNF166 level in human MV4-11 cells assessed as fold change at 100 nM measured after 4 hrs; assay type: functional
# [47] = Effect on BRD3 level in human MV4-11 cells assessed as fold change at 100 nM measured after 4 hrs; assay type: functional
# [48] = Stability in mouse plasma assessed as half life by UPLC-MS/MS analysis; assay type: ADME, cell-free
# [49] = Permeability in MDCK-II cells incubated for 1 hr by UPLC/MS/UV analysis; assay type: ADME, cell-based, Canis lupus familiaris; details: dog, read-out: permeability
structure (smiles),measurement,setting,value
Cc1sc2c(c1C)C(c1ccc(Cl)cc1)=N[C@@H](CC(=O)NCCCCNC(=O)COc1cccc3c1C(=O)N(C1CCC(=O)NC1=O)C3=O)c1nnc(C)n1-2 (some centres undefined),half-life,[1],4.2 h
same,Ratio,[2],140
same,half-life,[3],4.2 h
Cc1sc2c(c1C)C(c1ccc(Cl)cc1)=N[C@@H](CC(=O)N1CCC(CN3CCN(c4ccc(C5CCC(=O)NC5=O)cc4)CC3)CC1)c1nnc(C)n1-2 (some centres undefined),AUC at 24 h,[4],5.54 µg·h/mL
same,clearance,[5],0.531 L/h/kg
same,fold change (FC),[6],-1.13
same,fold change (FC),[7],-1.2
same,fold change (FC),[8],-1.05
same,Activity,[9],Non-toxic
same,AUC,[10],281000
same,IC50,[11],0.12 nM
same,fold change (FC),[12],-3.52
same,Activity,[13],0.292 fRLU/hr
same,fold change (FC),[14],-1.18
same,fold change (FC),[15],-3.85
same,Stability,[16],Stable
same,fold change (FC),[17],-0.81
same,bioavailability,[18],45%
same,AUC(0-t) at 24 h,[19],8.06 µg·h/mL
same,IC50,[20],0.92 nM
same,fold change (FC),[21],-1.67
same,Stability,[22],Stable
same,half-life,[23],1.3 h
same,Activity,[24],Active
same,fold change (FC),[25],-0.99
same,Activity,[26],Active
same,fold change (FC),[27],-0.97
same,Activity,[28],> 90%
same,fold change (FC),[29],-0.15
same,half-life,[30],3.4 h
same,solubility kinetic,[31],48.4 µM
same,DC50,[32],0.19 nM
same,Vd,[33],0.85 L/kg
same,DC50,[34],0.127 nM
same,Activity,[35],Active
same,fold change (FC),[36],-0.91
same,fold change (FC),[37],-1.38
same,Emax,[38],96.9%
same,Activity,[39],Active
same,fold change (FC),[40],1.92
same,fold change (FC),[41],-2.05
same,Cmax,[42],2.44 µg/mL
same,fold change (FC),[43],-1.21
same,Activity,[44],> 90%
same,fold change (FC),[45],-1.16
same,fold change (FC),[46],-0.12
same,fold change (FC),[47],-3.85
same,half-life,[48],7.3 h
same,Papp at 1 h,[49],17 nm/s
